What was measured:
Format in all cases: cell-based
[1] = target: T1, human cloned CHRM2 receptor (M2_CHO cells) (Homo sapiens, UniProt P08172); test: CHRM2 Ca++ Flux Assay (agonist mode, FDSS 7000EX); settings: for M2 FDSS PA / Emax: Percent Activity measured to EC100 of Carbachol; for Emax: read-out: M2 FDSS PA; for EC50: agonist mode, geometric mean if tested more than once, read-out: M2 FDSS EC50
T1 construct: expressed in transfected cells; host or cells: CHO-K1
T1 sequence (P08172 1-466): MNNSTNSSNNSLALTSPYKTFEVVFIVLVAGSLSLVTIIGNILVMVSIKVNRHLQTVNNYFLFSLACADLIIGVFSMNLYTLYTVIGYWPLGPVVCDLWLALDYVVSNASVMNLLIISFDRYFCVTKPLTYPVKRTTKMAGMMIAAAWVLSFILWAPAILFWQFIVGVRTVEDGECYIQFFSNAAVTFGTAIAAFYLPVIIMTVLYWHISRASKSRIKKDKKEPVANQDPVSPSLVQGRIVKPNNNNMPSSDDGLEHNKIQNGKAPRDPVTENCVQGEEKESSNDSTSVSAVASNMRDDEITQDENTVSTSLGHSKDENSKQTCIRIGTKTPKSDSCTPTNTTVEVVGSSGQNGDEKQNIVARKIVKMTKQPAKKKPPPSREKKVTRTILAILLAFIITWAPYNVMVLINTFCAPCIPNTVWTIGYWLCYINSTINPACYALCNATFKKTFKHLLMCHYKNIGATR
Method in brief: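 Response expressed as percent activity versus the Carbachol EC100, with curves fitted by four-parameter non-linear regression of triplicates. Stable M2_CHO cells were Ca++ dye-loaded and preincubated 60 min at room temperature in assay buffer containing 20 μM ATP; signal imaged for 3 minutes after compound.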

[2] = target: T2, human cloned CHRM3 receptor (M3_CHO cells) (Homo sapiens, UniProt P20309); test: CHRM3 Ca++ Flux Assay (agonist mode, FDSS 7000EX); settings: for M3 FDSS PA / Emax: Percent Activity measured to EC100 of Carbachol; for EC50: agonist mode, geometric mean if tested more than once, read-out: M3 FDSS EC50; for Emax: read-out: M3 FDSS PA
T2 construct: expressed in transfected cells; host or cells: CHO-K1
Method in brief: (§1)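 Agonist-mode calcium flux: 11-point dose responses, triplicate wells, fluorescence followed for 3 minutes. Cells are M3_CHO or M5_CHO lines (human receptors) with Ca++ indicator in probenecid-containing HEPES/HBSS buffer. Percent activity is referenced to carbachol EC100, and curves come from four-parameter nonlinear regression.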

[3] = target: T3, human cloned CHRM5 receptor (M5_CHO) (Homo sapiens, UniProt P08912); test: CHRM5 Ca++ Flux Assay (agonist mode, FDSS 7000EX); settings: for M5 FDSS PA / Emax: Percent Activity measured to EC100 of Carbachol; for EC50: agonist mode, geometric mean if tested more than once, read-out: M5 FDSS EC50; for Emax: read-out: M5 FDSS PA
T3 construct: expressed in transfected cells; host or cells: CHO (M5_CHO)
T3 sequence (P08912 1-532): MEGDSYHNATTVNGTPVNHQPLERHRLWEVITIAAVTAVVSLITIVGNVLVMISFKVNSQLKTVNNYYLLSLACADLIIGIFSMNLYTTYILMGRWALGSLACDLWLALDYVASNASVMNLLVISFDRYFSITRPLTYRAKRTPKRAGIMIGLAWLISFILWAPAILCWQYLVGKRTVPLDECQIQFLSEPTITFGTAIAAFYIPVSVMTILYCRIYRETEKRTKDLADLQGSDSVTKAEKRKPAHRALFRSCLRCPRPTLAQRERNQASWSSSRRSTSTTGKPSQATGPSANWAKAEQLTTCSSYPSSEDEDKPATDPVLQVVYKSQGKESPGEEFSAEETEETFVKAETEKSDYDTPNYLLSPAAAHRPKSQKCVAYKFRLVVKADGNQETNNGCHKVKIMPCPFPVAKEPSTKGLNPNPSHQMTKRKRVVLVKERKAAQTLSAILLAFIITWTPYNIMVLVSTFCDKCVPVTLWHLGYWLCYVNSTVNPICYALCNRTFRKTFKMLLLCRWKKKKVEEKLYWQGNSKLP
Method in brief: as §1

T2 sequence (P20309 whole entry): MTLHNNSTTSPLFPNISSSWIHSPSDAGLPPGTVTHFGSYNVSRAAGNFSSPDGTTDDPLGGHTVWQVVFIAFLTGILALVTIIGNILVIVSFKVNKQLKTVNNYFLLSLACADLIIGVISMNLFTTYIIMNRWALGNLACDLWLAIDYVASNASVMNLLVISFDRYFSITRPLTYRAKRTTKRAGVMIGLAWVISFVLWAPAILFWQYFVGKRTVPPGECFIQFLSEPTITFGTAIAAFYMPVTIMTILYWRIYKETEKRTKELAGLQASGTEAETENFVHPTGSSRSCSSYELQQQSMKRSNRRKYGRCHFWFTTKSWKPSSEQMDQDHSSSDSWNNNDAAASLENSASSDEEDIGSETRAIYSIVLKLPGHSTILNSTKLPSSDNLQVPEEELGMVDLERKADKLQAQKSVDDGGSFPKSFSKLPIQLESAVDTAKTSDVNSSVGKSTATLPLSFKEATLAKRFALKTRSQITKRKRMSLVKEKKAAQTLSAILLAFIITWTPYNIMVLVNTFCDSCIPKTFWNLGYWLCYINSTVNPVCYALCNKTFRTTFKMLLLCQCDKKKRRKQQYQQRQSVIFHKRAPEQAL

M2 FDSS PA [1] [%] | M3 FDSS PA [2] [%] | EC50 [2] [µM] | M5 FDSS PA [3] [%] | EC50 [3] [µM] | Emax [1] [%] | Emax [2] [%] | Emax [3] [%] | EC50 [1] [µM] | Structure (SMILES)
28 | 0 | > 25 | 0 | > 25 |  |  |  |  | FC(F)(F)Oc1ccccc1C1CCN([C@@H]2CCC3(C2)CN(c2nncs2)C3)CC1 (single isomer, unassigned) [Example 10N, (R)-2-(6-(4-(2-(trifluoromethoxy)phenyl)piperidin-1-yl)-2-azaspiro[3.4]octan-2-yl)-1,3,4-thiadiazole or (S)-2-(6-(4-(2-(trifluoromethoxy)phenyl)piperidin-1-yl)-2-azaspiro[3.4]octan-2-yl)-1,3,4-thiadiazole]
17 | 0 | > 25 | 0 | > 25 |  |  |  |  | FC(F)Oc1ccccc1C1CCN([C@@H]2CCC3(C2)CN(c2nncs2)C3)CC1 (single isomer, unassigned) [Example 10O, (R)-2-(6-(4-(2-(difluoromethoxy)phenyl)piperidin-1-yl)-2-azaspiro[3.4]octan-2-yl)-1,3,4-thiadiazole or (S)-2-(6-(4-(2-(difluoromethoxy)phenyl)piperidin-1-yl)-2-azaspiro[3.4]octan-2-yl)-1,3,4-thiadiazole]
18 | 0 | > 25 | 0 | > 25 |  |  |  |  | COc1ccccc1C1CCN([C@@H]2CCC3(C2)CN(c2ncns2)C3)CC1 (single isomer, unassigned) [Example 10Q, (R)-5-(6-(4-(2-methoxyphenyl)piperidin-1-yl)-2-azaspiro[3.4]octan-2-yl)-1,2,4-thiadiazole or (S)-5-(6-(4-(2-methoxyphenyl)piperidin-1-yl)-2-azaspiro[3.4]octan-2-yl)-1,2,4-thiadiazole]
0 | 0 | > 25 | 0 | > 25 |  |  |  |  | COc1ccccc1C1CCN([C@@H]2CCC3(C2)CN(c2ncns2)C3)CC1 (single isomer, unassigned) [Example 10R, (R)-5-(6-(4-(2-methoxyphenyl)piperidin-1-yl)-2-azaspiro[3.4]octan-2-yl)-1,2,4-thiadiazole or (S)-5-(6-(4-(2-methoxyphenyl)piperidin-1-yl)-2-azaspiro[3.4]octan-2-yl)-1,2,4-thiadiazole]
0 | 0 | > 25 | 0 | > 25 |  |  |  |  | O=C(N1CC2(CC[C@@H](N3CCC(c4cc(F)ccc4OC4CC5(COC5)C4)CC3)C2)C1)C1(F)CC1 (single isomer, unassigned) [Example 11A, (R)-(6-(4-(2-((2-oxaspiro[3.3]heptan-6-yl)oxy)-5-fluorophenyl)piperidin-1-yl)-2-azaspiro[3.4]octan-2-yl)(1-fluorocyclopropyl)methanone or (S)-(6-(4-(2-((2-oxaspiro[3.3]heptan-6-yl)oxy)-5-fluorophenyl)piperidin-1-yl)-2-azaspiro[3.4]octan-2-yl)(1-fluorocyclopropyl)methanone]
0 | 0 | > 25 | 0 | > 25 |  |  |  |  | O=C(N1CC2(CC[C@@H](N3CCC(c4cc(F)ccc4OC4CC5(COC5)C4)CC3)C2)C1)C1(F)CC1 (single isomer, unassigned) [Example 11B, (R)-(6-(4-(2-((2-oxaspiro[3.3]heptan-6-yl)oxy)-5-fluorophenyl)piperidin-1-yl)-2-azaspiro[3.4]octan-2-yl)(1-fluorocyclopropyl)methanone or (S)-(6-(4-(2-((2-oxaspiro[3.3]heptan-6-yl)oxy)-5-fluorophenyl)piperidin-1-yl)-2-azaspiro[3.4]octan-2-yl)(1-fluorocyclopropyl)methanone]
0 | −1 | > 25 | 0 | > 25 |  |  |  |  | O=C(N1CC2(CC[C@@H](N3CCC(c4ccccc4OC4CC5(COC5)C4)CC3)C2)C1)C1(F)CC1 (single isomer, unassigned) [Example 11C, (R)-(6-(4-(2-((2-oxaspiro[3.3]heptan-6-yl)oxy)phenyl)piperidin-1-yl)-2-azaspiro[3.4]octan-2-yl)(1-fluorocyclopropyl)methanone or (S)-(6-(4-(2-((2-oxaspiro[3.3]heptan-6-yl)oxy)phenyl)piperidin-1-yl)-2-azaspiro[3.4]octan-2-yl)(1-fluorocyclopropyl)methanone]
0 | 0 | > 25 | 0 | > 25 |  |  |  |  | O=C(N1CC2(CC[C@@H](N3CCC(c4ccccc4OC4CC5(COC5)C4)CC3)C2)C1)C1(F)CC1 (single isomer, unassigned) [Example 11D, (R)-(6-(4-(2-((2-oxaspiro[3.3]heptan-6-yl)oxy)phenyl)piperidin-1-yl)-2-azaspiro[3.4]octan-2-yl)(1-fluorocyclopropyl)methanone or (S)-(6-(4-(2-((2-oxaspiro[3.3]heptan-6-yl)oxy)phenyl)piperidin-1-yl)-2-azaspiro[3.4]octan-2-yl)(1-fluorocyclopropyl)methanone]
 |  | > 25 |  | > 25 | 0 | 0 | 0 |  | Fc1ccc(OC2CC3(COC3)C2)c(C2CCN([C@@H]3CCC4(C3)CN(c3nnco3)C4)CC2)c1 [Example 1B, (R)-2-(6-(4-(2-((2-oxaspiro[3.3]heptan-6-yl)oxy)-5-fluorophenyl)piperidin-1-yl)-2-azaspiro[3.4]octan-2-yl)-1,3,4-oxadiazole]
 |  | > 25 |  | > 25 | 15 | 0 | 0 | 0.017 | c1ccc(C2CCN([C@@H]3CCC4(C3)CN(c3nnco3)C4)CC2)c(OC[C@H]2COCCO2)c1 [Example 1C, 2-((R)-6-(4-(2-(((R)-1,4-dioxan-2-yl)methoxy)phenyl)piperidin-1-yl)-2-azaspiro[3.4]octan-2-yl)-1,3,4-oxadiazole]
 |  | > 25 |  | > 25 | 0 | 0 | 0 |  | Cc1coc(N2CC3(CC[C@@H](N4CCC(c5ccc(F)cc5OCC(C)(C)O)CC4)C3)C2)n1 [Example 3N, (R)-1-(5-fluoro-2-(1-(2-(4-methyloxazol-2-yl)-2-azaspiro[3.4]octan-6-yl)piperidin-4-yl)phenoxy)-2-methylpropan-2-ol]
 |  | > 25 |  | > 25 | 0 | 0 | 0 |  | Cc1coc(N2CC3(CC[C@@H](N4CCC(c5ccccc5OCC(C)(C)O)CC4)C3)C2)n1 [Example 3O, (R)-2-methyl-1-(2-(1-(2-(4-methyloxazol-2-yl)-2-azaspiro[3.4]octan-6-yl)piperidin-4-yl)phenoxy)propan-2-ol]
 |  | > 25 |  | 0.7 | 21 | 0 | 6 | 0.019 | COc1ccccc1C1CCN([C@@H]2CCC3(C2)CN(c2ncon2)C3)CC1 [Example 4A, (R)-3-(6-(4-(2-methoxyphenyl)piperidin-1-yl)-2-azaspiro[3.4]octan-2-yl)-1,2,4-oxadiazole]
 |  | > 25 |  | > 25 | 0 | 0 | 0 |  | COc1ccccc1C1CCN([C@@H]2CCC3(C2)CN(c2cncnc2)C3)CC1 [Example 5A, (R)-6-(4-(2-methoxyphenyl)piperidin-1-yl)-2-(pyrimidin-5-yl)-2-azaspiro[3.4]octane]
